Measured values as given in patent USRE42462E1, “Carboxylic acid derivatives, their preparation and use” (Abbott GmbH & Co. KG, priority 1995, dated 2011).
Values belong to the compound of their own block, whether it stands above or below them.

How the values were obtained:
[1] = molecular target: T1, Cloned human ETA receptor (Homo sapiens, UniProt P25101); test: ETA receptor binding assay ([125I]-ET1, membranes of CHO cells); settings: 25 pM [125I]-ET1, 25° C., 30 min
T1 construct: expressed in transfected cells; host or cells: CHO cells
T1 sequence (P25101 21-427): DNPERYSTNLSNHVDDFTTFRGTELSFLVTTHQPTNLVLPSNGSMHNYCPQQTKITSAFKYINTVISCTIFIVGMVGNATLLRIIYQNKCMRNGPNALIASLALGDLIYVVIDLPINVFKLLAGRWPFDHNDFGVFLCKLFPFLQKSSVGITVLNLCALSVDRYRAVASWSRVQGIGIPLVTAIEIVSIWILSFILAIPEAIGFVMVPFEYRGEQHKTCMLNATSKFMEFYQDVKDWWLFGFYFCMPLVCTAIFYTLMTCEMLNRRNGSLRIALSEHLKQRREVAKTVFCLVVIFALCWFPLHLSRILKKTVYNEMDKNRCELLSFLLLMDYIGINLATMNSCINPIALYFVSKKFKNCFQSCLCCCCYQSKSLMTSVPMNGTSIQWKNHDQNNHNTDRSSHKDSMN
Experimental: Cloned human ETA receptor-expressing CHO cells and guinea pig cerebellar membranes with >60% ETB compared with ETA receptors were used for binding studies.
The ETA receptor-expressing CHO cells were grown in F12 medium containing 10% fetal calf serum, 1% glutamine, 100 U/ml penicillin and 0.2% streptomycin (Gibco BRL, Gaithersburg, Md., USA).
After 48 h, the cells were washed with PBS and incubated with 0.05% trypsin-containing PBS for 5 min. Neutralization was then carried out with F12 medium, and the cells were collected by centrifugation at 300×g. To lyze lyse the cells, the pellet was briefly washed with lysis buffer (5 mM Tris-IICl, pII 7.4 with 10% glycerol) and then incubated at a concentration of 10^7 cells/ml of lysis buffer at 4° C. for 30 min. The membranes were centrifuged at 20,000×g for 10 min, and the pellet was stored in liquid nitrogen.
For the ETA and ETB receptor binding assay, the membranes were suspended in incubation buffer (50 mM Tris-HCl, pH 7.4 with 5 mM MnCl2, 40 μg/ml bacitracin and 0.2% BSA) at a concentration of 50 μg of protein per assay mixture and incubated with 25 pM [125I] [^125I]-ET1 (ETA receptor assay) or 25 pM [125I] [^125I]-RZ3 (ETB receptor assay) in the presence and absence of test substance at 25° C. The nonspecific binding was determined using 10^--7 10^−7 M ET1. After 30 min, the free and bound radioligand were separated by filtration through GF/B glass fiber filters (Whatman, England) on a Skatron cell collector (Skatron, Lier, Norway) and the filters were washed with ice-cold Tris-HCl buffer, pH 7.4 with 0.2% BSA. The radioactivity collected on the filters was quantified using a Packard 2200 CA liquid scintillation counter.

ETB receptors = molecular target: T2, ETB receptors (Cavia porcellus, UniProt H0VTF3); test: ETB receptor binding assay ([125I]-RZ3, guinea pig cerebellar membranes); settings: 25 pM [125I]-RZ3, 25° C., 30 min
T2 construct: Guinea pig cerebella were homogenized in a Potter-Elvejhem homogenizer; from tissue; host or cells: guinea pig cerebellum membranes
T2 sequence (H0VTF3 27-415): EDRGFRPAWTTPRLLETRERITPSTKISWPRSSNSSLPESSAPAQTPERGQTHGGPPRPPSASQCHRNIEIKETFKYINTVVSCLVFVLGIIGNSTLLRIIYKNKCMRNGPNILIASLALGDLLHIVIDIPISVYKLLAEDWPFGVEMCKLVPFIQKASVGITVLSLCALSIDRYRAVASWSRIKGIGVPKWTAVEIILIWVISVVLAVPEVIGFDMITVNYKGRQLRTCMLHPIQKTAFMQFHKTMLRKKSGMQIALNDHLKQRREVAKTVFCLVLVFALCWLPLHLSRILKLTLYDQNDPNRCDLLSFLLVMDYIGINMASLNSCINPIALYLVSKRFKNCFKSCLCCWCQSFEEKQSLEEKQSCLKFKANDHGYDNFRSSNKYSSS
Experimental: Guinea pig cerebella were homogenized in a Potter-Elvejhem homogenizer and [lacuna] obtained by differential centrifugation at 1000×g for 10 min and repeated centrifugation of the supernatant at 20,000×g for 10 min.

Ki [1]: 23 nM
Ki (ETB receptors): 2000 nM
Compound: COc1cc(OC)nc(OC(C(=O)O)C(OCC2CC2)(c2ccccc2)c2ccccc2)n1 (stereo not drawn) [Compound I-26]

Ki [1]: 86 nM
Ki (ETB receptors): 9300 nM
Compound: COc1nc(OC(C(=O)O)C(OC)(c2ccccc2)c2ccccc2)nc2c1ccn2C (stereo not drawn) [I.89]

Ki [1]: 1 nM
Compound: COc1nc(OC(C(=O)O)C(OC)(c2ccccc2)c2ccccc2)nc2c1CCO2 (stereo not drawn) [Compound I-87]

Ki [1]: 107 nM
Ki (ETB receptors): 7300 nM
Compound: COc1cc(OC)nc(OC(C(=O)O)C2(OC)c3ccccc3CCc3ccccc32)n1 (stereo not drawn) [II-3]

Ki [1]: 209 nM
Ki (ETB receptors): 1100 nM
Compound: COc1cc(OC)nc(OC(C(=O)O)C(OCCCC(C)C)(c2ccccc2)c2ccccc2)n1 (stereo not drawn) [Compound I-23]

melting point: 143 to 147 °C
Compound: COc1nc(OC(C(=O)OCc2ccccc2)C(OC)(c2ccccc2)c2ccccc2)nc2c1CCC2 (stereo not drawn) [Example 12, Benzyl 3-methoxy-2-(4-methoxy-6,7-dihydro-5H-cyclopentapyrimidin-2-yloxy)-3,3-diphenylpropionate]

Ki [1]: 150 nM
Ki (ETB receptors): 1500 nM
Compound: COc1cc(OC)nc(OC(C(=O)O)C(OCc2ccccc2)(c2ccccc2)c2ccccc2)n1 (stereo not drawn) [Compound I-47]

Ki [1]: 0.4 nM
Compound: COc1cc(C)nc(OC(C(=O)O)C(OC)(c2ccccc2)c2ccccc2)n1 (stereo not drawn) [Compound I-103]

Second part, the compound before the results:

Compound: CCCOC(c1ccccc1)(c1ccccc1)C(Oc1nc(OC)cc(OC)n1)C(=O)O (stereo not drawn) [Compound I-12]
Ki (ETB receptors): 1700 nM

Compound: CCOC(c1ccccc1)(c1ccccc1)C(Oc1nc(OC)cc(OC)n1)C(=O)O (stereo not drawn) [Compound I-4]
Ki (ETB receptors): 2500 nM

Compound: COc1cc(OC)nc(OC(C(=O)O)C(Oc2ccccc2)(c2ccccc2)c2ccccc2)n1 (stereo not drawn) [Compound I-29]
Ki [1]: 86 nM
Ki (ETB receptors): 180 nM

Compound: COc1cc(OC)nc(OC(C(=O)O)C(OC)(c2ccccc2)c2ccccc2)n1 (stereo not drawn) [Compound I-2]
Ki (ETB receptors): 34 nM

Compound: COc1cc(OC)nc(OC(C(=O)O)C(SC)(c2ccccc2)c2ccccc2)n1 (stereo not drawn) [Compound I-107]
Ki [1]: 3 nM
Ki (ETB receptors): 485 nM

Compound: COc1cc(OC)nc(OC(C(=O)O)C2(OC)c3ccccc3-c3ccccc32)n1 (stereo not drawn) [II-1]
Ki [1]: 28 nM
Ki (ETB receptors): 2300 nM
melting point: 96 to 98 °C

Compound: COc1cc(OC)nc(OC(C(=O)O)C(OC(C)C)(c2ccccc2)c2ccccc2)n1 (stereo not drawn) [Compound I-5]
Ki [1]: 12 nM
Ki (ETB receptors): 160 nM

Compound: COc1nc(OC(C(=O)O)C(OC)(c2ccccc2)c2ccccc2)nc2c1CCC2 (stereo not drawn) [Compound I-96]
Ki [1]: 0.6 nM
Ki (ETB receptors): 56 nM
